# Test results from patent US20030181426A1, “Compositions and methods for treating pain using cyclooxygenase-1 inhibitors” (priority 2002, published 2003).
# Read-outs that look alike come from different tables or passages of the source.
# Key:
# noxious heat = experiment: Latency to paw withdrawal from noxious heat; assay type: in vivo, male Sprague-Dawley rats
# Method: After Animal Care and Use Committee approval, adult male Sprague-Dawley rats (240-330 g; Harlan, Indianapolis, Ind.) were anesthetized with halothane. A catheter was inserted, as previously described, through a small nick in the cisterna magnum membrane into the intrathecal space and advanced 7.5 cm such that its tip lay in the lumbar intrathecal space. […] After catheter implantation, rats were housed individually with a 12 h/12 h light/dark cycle and an unlimited supply of water and food. Experiments occurred at least 6 days after surgery.
# PGE2 [1] = experiment: CSF PGE2 concentrations in conscious dogs after i.t. ketorolac; assay type: in vivo; details: within 30 min of injection
# tactile allodynia = experiment: L5 and L6 spinal nerve ligation (SNL) tactile allodynia, lidocaine and ketorolac; assay type: in vivo, male Sprague-Dawley rats
# acute noxious heat = experiment: Heat pain testing with Peltier-controlled thermode in volunteers; assay type: in vivo, humans; details: for Pain threshold temperatures: in °C (unit assumed)
# [2] = system: locomotor activity after laparotomy; experiment: Post-laparotomy locomotor activity model; assay type: in vivo, rats
# [3] = not given; remark: listed apart in the source
# [4] = system: tactile hypersensitivity after paw incision; experiment: Brennan model: tactile hypersensitivity after paw incision, von Frey withdrawal threshold; assay type: in vivo, male Sprague-Dawley rats
# [5] = Phase I safety trial of intrathecal ketorolac in healthy volunteers; assay type: in vivo, humans
# PGE2 [6] = experiment: PGE2 concentration in cerebrospinal fluid of volunteers; assay type: in vivo, humans; details: for Pre-injection PGE2: CSF before injection; for Post-injection PGE2: CSF 60 min after injection
# [7] = intrathecal ketorolac 50 μg, 1 week after 200 μg intrathecal lidocaine
# [8] = intrathecal ketorolac 50 μg, 1 week after 300 μg intrathecal lidocaine
# [9] = i.t. 50 μg, compared to i.t. saline control
smiles,measurement,setting,value
O=C(c1ccccc1)c1ccc2n1CCC2C(=O)O (stereo not drawn) [ketorolac],systemic toxicity at large doses,"dog, in vivo",gastrointestinal ulceration and bleeding
same,spinal neurotoxicity,"i.t., dogs",no evidence for spinal neurotoxicity
same,antinociception (latency to paw withdrawal from noxious heat),noxious heat; addition of ketorolac to clonidine,increased antinociception
same,antinociception (latency to paw withdrawal from noxious heat),"noxious heat; drug alone, rats with intrathecal catheter",did not
same,withdrawal threshold to noxious heat,"noxious heat; i.t. ketorolac, rats",lack of effect
same,reduction of CSF PGE2 concentrations,PGE2 [1],> 90%
same,tactile allodynia caused by SNL,tactile allodynia; intrathecal ketorolac 50 μg alone,failed to attenuate
same,antiallodynic effect,"tactile allodynia; intrathecal ketorolac 50 μg, 1 week after 100 μg intrathecal lidocaine",failed to exert any antiallodynic effect
same,duration of reversal of tactile allodynia,tactile allodynia; [7],4 h
same,tactile allodynia caused by SNL,tactile allodynia; [7],reversed tactile allodynia
same,duration of reversal of tactile allodynia,tactile allodynia; [8],4 h
same,tactile allodynia caused by SNL,tactile allodynia; [8],reversed tactile allodynia
same,SNL-induced tactile allodynia,"tactile allodynia; intrathecal ketorolac 50 μg, 1 week following prior intrathecal ketorolac 50 μg",failed to alleviate
same,SNL-induced tactile allodynia,tactile allodynia; intrathecal ketorolac 100 μg alone,failed to alleviate
same,SNL-induced tactile allodynia,"tactile allodynia; intrathecal ketorolac 100 μg, 1 week after intrathecal lidocaine",exhibited the antiallodynic effect
same,antiallodynic effect,"tactile allodynia; one day after intrathecal ketorolac, rats previously given 200 and 300 μg lidocaine",disappeared
same,temperature pain threshold,acute noxious heat; 0.5 mg i.t.,did not affect
same,analgesic effect to acute noxious heat (pain magnitude report),"acute noxious heat; 0.5 mg i.t., moderate and severe pain intensities, FIG. 3",apparent effect
same,Pain threshold temperatures,"acute noxious heat; Arm, 0.25 mg i.t., 0.25 h",45 ± 1.0
same,Pain threshold temperatures,"acute noxious heat; Arm, 0.25 mg i.t., 0.5 h",44 ± 1.5
same,Pain threshold temperatures,"acute noxious heat; Arm, 0.25 mg i.t., 1 h",45 ± 1.3
same,Pain threshold temperatures,"acute noxious heat; Arm, 0.25 mg i.t., 2 h",44 ± 1.7
same,Pain threshold temperatures,"acute noxious heat; Arm, 0.25 mg i.t., 3 h",45 ± 1.1
same,Pain threshold temperatures,"acute noxious heat; Arm, 0.25 mg i.t., 4 h",44 ± 2.2
same,Pain threshold temperatures,"acute noxious heat; Arm, 0.25 mg i.t., 24 h",46 ± 0.5
same,Pain threshold temperatures,"acute noxious heat; Arm, 0.25 mg i.t., time 0 h (injection at time 0)",45 ± 1.1
same,Pain threshold temperatures,"acute noxious heat; Arm, 0.50 mg i.t., 0.25 h",44 ± 1.9
same,Pain threshold temperatures,"acute noxious heat; Arm, 0.50 mg i.t., 0.5 h",43 ± 1.2
same,Pain threshold temperatures,"acute noxious heat; Arm, 0.50 mg i.t., 1 h",44 ± 1.7
same,Pain threshold temperatures,"acute noxious heat; Arm, 0.50 mg i.t., 2 h",45 ± 1.9
same,Pain threshold temperatures,"acute noxious heat; Arm, 0.50 mg i.t., 3 h",46 ± 1.7
same,Pain threshold temperatures,"acute noxious heat; Arm, 0.50 mg i.t., 4 h",46 ± 1.7
same,Pain threshold temperatures,"acute noxious heat; Arm, 0.50 mg i.t., 24 h",44 ± 1.7
same,Pain threshold temperatures,"acute noxious heat; Arm, 0.50 mg i.t., time 0 h (injection at time 0)",45 ± 1.9
same,Pain threshold temperatures,"acute noxious heat; Arm, 1.0 mg i.t., 0.25 h",41 ± 1.3
same,Pain threshold temperatures,"acute noxious heat; Arm, 1.0 mg i.t., 0.5 h",40 ± 0.5
same,Pain threshold temperatures,"acute noxious heat; Arm, 1.0 mg i.t., 1 h",39 ± 0.7
same,Pain threshold temperatures,"acute noxious heat; Arm, 1.0 mg i.t., 2 h",41 ± 1.2
same,Pain threshold temperatures,"acute noxious heat; Arm, 1.0 mg i.t., 3 h",42 ± 0.9
same,Pain threshold temperatures,"acute noxious heat; Arm, 1.0 mg i.t., 4 h",42 ± 1.5
same,Pain threshold temperatures,"acute noxious heat; Arm, 1.0 mg i.t., 24 h",41 ± 1.6
same,Pain threshold temperatures,"acute noxious heat; Arm, 1.0 mg i.t., time 0 h (injection at time 0)",40 ± 0.5
same,Pain threshold temperatures,"acute noxious heat; Arm, 2.0 mg i.t., 0.25 h",44 ± 1.9
same,Pain threshold temperatures,"acute noxious heat; Arm, 2.0 mg i.t., 0.5 h",43 ± 1.4
same,Pain threshold temperatures,"acute noxious heat; Arm, 2.0 mg i.t., 1 h",40 ± 2.1
same,Pain threshold temperatures,"acute noxious heat; Arm, 2.0 mg i.t., 2 h",43 ± 1.8
same,Pain threshold temperatures,"acute noxious heat; Arm, 2.0 mg i.t., 3 h",43 ± 1.6
same,Pain threshold temperatures,"acute noxious heat; Arm, 2.0 mg i.t., 4 h",43 ± 1.9
same,Pain threshold temperatures,"acute noxious heat; Arm, 2.0 mg i.t., 24 h",45 ± 2.3
same,Pain threshold temperatures,"acute noxious heat; Arm, 2.0 mg i.t., time 0 h (injection at time 0)",44 ± 1.3
same,Pain threshold temperatures,"acute noxious heat; Leg, 0.25 mg i.t., 0.25 h",45 ± 1.1
same,Pain threshold temperatures,"acute noxious heat; Leg, 0.25 mg i.t., 0.5 h",46 ± 1.1
same,Pain threshold temperatures,"acute noxious heat; Leg, 0.25 mg i.t., 1 h",47 ± 0.7
same,Pain threshold temperatures,"acute noxious heat; Leg, 0.25 mg i.t., 2 h",46 ± 1.5
same,Pain threshold temperatures,"acute noxious heat; Leg, 0.25 mg i.t., 3 h",45 ± 1.1
same,Pain threshold temperatures,"acute noxious heat; Leg, 0.25 mg i.t., 4 h",46 ± 0.9
same,Pain threshold temperatures,"acute noxious heat; Leg, 0.25 mg i.t., 24 h",45 ± 1.1
same,Pain threshold temperatures,"acute noxious heat; Leg, 0.25 mg i.t., time 0 h (injection at time 0)",45 ± 1.3
same,Pain threshold temperatures,"acute noxious heat; Leg, 0.50 mg i.t., 0.25 h",46 ± 2.4
same,Pain threshold temperatures,"acute noxious heat; Leg, 0.50 mg i.t., 0.5 h",48 ± 2.2
same,Pain threshold temperatures,"acute noxious heat; Leg, 0.50 mg i.t., 1 h",46 ± 1.7
same,Pain threshold temperatures,"acute noxious heat; Leg, 0.50 mg i.t., 2 h",46 ± 2.5
same,Pain threshold temperatures,"acute noxious heat; Leg, 0.50 mg i.t., 3 h",46 ± 1.7
same,Pain threshold temperatures,"acute noxious heat; Leg, 0.50 mg i.t., 4 h",46 ± 2.4
same,Pain threshold temperatures,"acute noxious heat; Leg, 0.50 mg i.t., 24 h",45 ± 2.0
same,Pain threshold temperatures,"acute noxious heat; Leg, 0.50 mg i.t., time 0 h (injection at time 0)",45 ± 1.4
same,Pain threshold temperatures,"acute noxious heat; Leg, 1.0 mg i.t., 0.25 h",42 ± 1.7
same,Pain threshold temperatures,"acute noxious heat; Leg, 1.0 mg i.t., 0.5 h",42 ± 0.5
same,Pain threshold temperatures,"acute noxious heat; Leg, 1.0 mg i.t., 1 h",44 ± 0.5
same,Pain threshold temperatures,"acute noxious heat; Leg, 1.0 mg i.t., 2 h",42 ± 1.5
same,Pain threshold temperatures,"acute noxious heat; Leg, 1.0 mg i.t., 3 h",43 ± 1.0
same,Pain threshold temperatures,"acute noxious heat; Leg, 1.0 mg i.t., 4 h",43 ± 1.1
same,Pain threshold temperatures,"acute noxious heat; Leg, 1.0 mg i.t., 24 h",42 ± 0.9
same,Pain threshold temperatures,"acute noxious heat; Leg, 1.0 mg i.t., time 0 h (injection at time 0)",41 ± 1.3
same,Pain threshold temperatures,"acute noxious heat; Leg, 2.0 mg i.t., 0.25 h",45 ± 1.4
same,Pain threshold temperatures,"acute noxious heat; Leg, 2.0 mg i.t., 0.5 h",43 ± 1.3
same,Pain threshold temperatures,"acute noxious heat; Leg, 2.0 mg i.t., 1 h",44 ± 2.1
same,Pain threshold temperatures,"acute noxious heat; Leg, 2.0 mg i.t., 2 h",44 ± 2.3
same,Pain threshold temperatures,"acute noxious heat; Leg, 2.0 mg i.t., 3 h",43 ± 1.6
same,Pain threshold temperatures,"acute noxious heat; Leg, 2.0 mg i.t., 4 h",44 ± 1.8
same,Pain threshold temperatures,"acute noxious heat; Leg, 2.0 mg i.t., 24 h",45 ± 2.2
same,Pain threshold temperatures,"acute noxious heat; Leg, 2.0 mg i.t., time 0 h (injection at time 0)",45 ± 1.6
same,response to suprathreshold stimuli,acute noxious heat; any dose (0.25-2 mg i.t.),no effect
same,threshold to heat pain in either the arm or the leg,acute noxious heat; i.t. 0.25-2 mg,unaffected
same,analgesia to acute noxious heat,"acute noxious heat; i.t., doses up to 1.0 mg",several hours of analgesia
same,ambulatory locomotor activity after laparotomy,[2]; [9],increased
same,vertical locomotor activity after laparotomy,[2]; [9],increased
same,locomotor activity in the absence of surgery,[2]; ketorolac alone,no effect
same,effect on morphine's effect on ambulatory activity,[2]; systemic ketorolac 5 mg/kg i.p. with morphine,potentiate morphine's effect
same,ambulatory activity after laparotomy,"[2]; systemic, 5 mg/kg i.p.",failed to affect ambulatory activity
same,spinal neurotoxicity,"[3]; i.t., rats",no evidence for spinal neurotoxicity
same,systemic toxicity at large doses,"[3]; rat, in vivo",gastrointestinal ulceration and bleeding
same,withdrawal threshold (von Frey) after paw incision,"[4]; i.t. 50 μg given on the first postoperative day, established tactile hypersensitivity, within 30 min",increased withdrawal threshold
same,withdrawal threshold (von Frey) after paw incision,"[4]; i.t. 50 μg, pretreatment 15 min before surgery, compared to saline control 2 hr later and on the next day",increased withdrawal threshold
same,headache,"[5]; 0.5 mg i.t., one individual, 24 h after injection, resolved the following day",mild headache
same,"heart rate prior to injection, range",[5]; entire group,52-86 bpm
same,"minimum heart rate at any time after injection, range",[5]; entire group,45-69 bpm
same,heart rate prior to injection,"[5]; entire group, mean ± SE",67±2.1 bpm
same,minimum heart rate at any time after injection,"[5]; entire group, mean ± SE",57±1.7 bpm
same,heart rate,"[5]; for 1 hr following ketorolac, significant within each dose group except 2.0 mg",decreased
same,side effects,"[5]; i.t. 0.25, 0.5, 1, or 2 mg open label dose-escalation, early studies of 14 subjects",no side effects were observed
same,"blood pressure, oxyhemoglobin saturation, end-tidal CO2",[5]; i.t. 0.25-2 mg,did not affect
same,"deviation of blood pressure, oxyhemoglobin saturation, end-tidal CO2 from pre-injection values",[5]; i.t. 0.25-2 mg,≤ 10%
same,side effects at long-term follow up,[5]; i.t. 0.25-2 mg,no side effects
same,subjective neurologic symptoms,[5]; i.t. 0.25-2 mg,no subjective neurologic symptoms in any volunteer
same,symptomatic bradycardia,[5]; i.t. 0.25-2 mg,In no case
same,"sedation, anxiety, gastrointestinal or genitourinary symptoms, or dizziness","[5]; i.t. 0.25-2 mg, at any time",No volunteer reported
same,neurologic examination,"[5]; i.t. 0.25-2 mg, twenty volunteers",no effect
same,side effects,"[5]; i.t., doses up to 1.0 mg",no side effects
same,Pre-injection PGE2,PGE2 [6]; 0.25 mg dose group,4.7 ± 0.7 pg/mL
same,Post-injection PGE2,PGE2 [6]; 0.25 mg i.t.,6.0 ± 0.9 pg/mL
same,Pre-injection PGE2,PGE2 [6]; 0.50 mg dose group,5.6 ± 1.9 pg/mL
same,Post-injection PGE2,PGE2 [6]; 0.50 mg i.t.,3.8 ± 0.6 pg/mL
same,Pre-injection PGE2,PGE2 [6]; 1.0 mg dose group,4.1 ± 0.9 pg/mL
same,Post-injection PGE2,PGE2 [6]; 1.0 mg i.t.,8.5 ± 1.7 pg/mL
same,Pre-injection PGE2,PGE2 [6]; 2.0 mg dose group,4.9 ± 0.7 pg/mL
same,Post-injection PGE2,PGE2 [6]; 2.0 mg i.t.,7.5 ± 1.7 pg/mL
same,CSF PGE2 concentration 60 min after ketorolac injection,PGE2 [6]; entire study population,6.1 ± 0.6 pg/mL
same,CSF PGE2 concentration prior to ketorolac injection,PGE2 [6]; entire study population,4.9 ± 0.5 pg/mL
same,effect on CSF PGE2 concentrations,"PGE2 [6]; entire study population, 60 min after injection",not affected
